{"source": "patent US12648932B2", "about": "“Ergothioneine, S-methyl-ergothioneine, and uses thereof” (FUNDACIÓ INSTITUT D'INVESTIGACIÓ BIOMÈDICA DE BELLVITGE …, priority 2019, dated 2026)", "key": {"[1]": {"conditions": "equivalent of 5 mg/kg·day; cited from earlier work"}, "[2]": {"system": "transulfuration pathway metabolites in kidney", "assay": "Intracellular content of transulfuration pathway metabolites in kidneys of chronically treated mice (UPLC-MS/MS)", "assay_type": "in vivo, mouse", "conditions": "chronically L-Erg treated vs untreated mice", "experimental": "For the chronic exposure (6-month treatment), 4-6 mice per cage were treated since weaning for 6 months. To control L-Erg dose, water intake and mice weight were monitored and L-Erg concentration in drinking water was adjusted to get 16 mg/kg·day dose every 3 days for the first month and weekly afterwards. All mice were caged in metabolic cages individually the last week of the treatment to collect urine where water intake and mice weight were monitored daily. On the last day, mice were anesthetized with isfluorane and blood removed through intracardiac puncture and kidneys were harvested, weighted and stored at −80° C. until further use. Cystine stones, if present, were removed, dried, weighted and stored at RT. L-Erg and S-Met-L-Erg analysis in urine were determined as in Example 1. For the determination of transulfuration pathway metabolites concentration, frozen kidneys were grinded using a pre-cooled mortar and pestle on dry ice. Then, 100 mg of powdered kidney were homogenized in 400 μL PBS supplemented with 10 mM NEM. To induce protein precipitation, PCA at 4% was added and samples were centrifuged at 4° C. for 15 min at 10,000 rpm in a microfuge. Supernatants were transferred to a new tube and stored at −80° C. until further analysis. Intracellular content of transulfuration pathway metabolites was determined by U PLC-MS/MS (Escobar J, et al. Development of a reliable method based on ultra-performance liquid chromatography coupled to tandem mass spectrometry to measure thiol-associated oxidative stress in whole blood samples. J. Pharm. Biomed. Anal. 2016; 123: 104-112). Protein pellets were resuspended in 400 μL 1M NaOH and the supernatant used to determine total protein concentration by BCA Protein Assay Kit (ThermoScientific)."}, "[3]": {"system": "cystinuric mice (cystine stone formation)", "assay": "6-month (chronic) L-Erg treatment of cystinuric mice since weaning, cystine stone onset by X-ray imaging", "assay_type": "in vivo, mouse", "conditions": "for stone growth (rate) in the L-Erg treated group: preventive treatment", "experimental": "For the chronic exposure (6-month treatment), 4-6 mice per cage were treated since weaning for 6 months. To control L-Erg dose, water intake and mice weight were monitored and L-Erg concentration in drinking water was adjusted to get 16 mg/kg·day dose every 3 days for the first month and weekly afterwards. All mice were caged in metabolic cages individually the last week of the treatment to collect urine where water intake and mice weight were monitored daily.\n(§1) Isoflurane anesthetized mice were subjected to X-ray imaging for lithiasis detection and follow-up with an IVIS Lumina XR Series III (Caliper Lifescience-Vertex Techniques) following manufacturer's imaging parameters at the age indicated in the corresponding figure legends with a calibration curve of cystine stone of known weights. Stone quantification was done using Living Image Software, provided with the instrument, by manually delimiting stone area and the estimated weight was interpolated from the calibration curve.\n(§2) For the growth rate analysis, a linear regression model was used when more than 2 data points where available. The slope of the regression line in the model was used as the growth rate.\n(§3) During the last week of any treatment period, mice were individually housed in metabolic cages for 4 days with the first day as an adaptation period. Mice weight, water and food intake, and excreted urine were monitored daily. 24 h urine samples were collected and kept at −80° C. until further analysis with 50 μL thymol 10% in isopropanol as preservative. pH was determined with a pHmeter (cat. no. 5209, Crison), and the redox potential with an ORP electrode (cat.no. 5265, Crison) at room temperature on a micropH 2000 (Crison).\nOn the last day, mice were anesthetized with isfluorane and blood removed through intracardiac puncture and kidneys were harvested, weighted and stored at −80° C. until further use. Cystine stones, if present, were removed, dried, weighted and stored at RT."}, "cystinuria mouse model": {"system": "cystinuria mouse model", "assay": "1-month L-Erg treatment in the drinking water (dose finding): water intake, urine pH, ORP, urine L-Erg and S-Met-L-Erg", "assay_type": "in vivo", "conditions": "for increase of L-Erg concentration in urine: after vs before treatment", "experimental": "Three different treatments were applied to mice: 1-month, 3-month to lithiasic mice (subchronic) and 6-month (chronic exposure). In all cases L-Erg was administered in the drinking water.\nFor the 1-month treatment, L-Erg was provided to eight 3-month old male and female mice at 15 or 60 mg/L for 4 weeks in standard cages with free access to water and food to 8 mice (4 males and 4 females).\nas §3\nL-Erg and S-Met-L-Erg analysis in urine were determined as in Example 1. For the determination of transulfuration pathway metabolites concentration, frozen kidneys were grinded using a pre-cooled mortar and pestle on dry ice. Then, 100 mg of powdered kidney were homogenized in 400 μL PBS supplemented with 10 mM NEM. To induce protein precipitation, PCA at 4% was added and samples were centrifuged at 4° C. for 15 min at 10,000 rpm in a microfuge. Supernatants were transferred to a new tube and stored at −80° C. until further analysis. Intracellular content of transulfuration pathway metabolites was determined by U PLC-MS/MS (Escobar J, et al. Development of a reliable method based on ultra-performance liquid chromatography coupled to tandem mass spectrometry to measure thiol-associated oxidative stress in whole blood samples. J. Pharm. Biomed. Anal. 2016; 123: 104-112). Protein pellets were resuspended in 400 μL 1M NaOH and the supernatant used to determine total protein concentration by BCA Protein Assay Kit (ThermoScientific).\nFirst, there were determined the best working dose for treating the mice by investigating the effects of 1-month L-Erg treatment at two different concentrations in the drinking water, 15 and 60 mg/L, on water intake, and urine pH and ORP and L-Erg concentration."}, "[4]": {"assay": "L-Erg-Cys in vitro binding assay", "conditions": "pH=7.2 and pH=11, RT, 17 h, LC/MS-MS", "experimental": "The reactivity of L-Erg with itself and with Cys was assayed in vitro at two conditions pH=7.2 in 0.2M Na2HPO4 and pH=11 in boric acid buffer (ref. 33650-1L, Fluka) at RT for 17 h. The presence of L-Erg-L-Erg and L-Erg-Cys dimers, and cystine was determined by LC/MS-MS."}, "[5]": {"system": "lithiasic mice (cystine stone growth)", "assay": "3-month L-Erg treatment of lithiasic mice, cystine stone growth by X-ray imaging", "assay_type": "in vivo, mouse", "conditions": "3 months", "experimental": "For the evaluation of L-Erg effect on lithiasic mice, 15 mice (8 males and 7 females) were treated with 60 mg/L L-Erg on the drinking water and 13 mice (4 male and 9 females were left untreated as control. Mice were 10.9-26-9 weeks-old at the beginning of the treatment period with a mean age of 15.3±1.4 and 16.9±1.01 weeks of age for control and L-Erg treated, respectively. During the 3-month treatment water intake and mice weight was monitored weekly.\nas §1, §2, §3"}, "[6]": {"system": "lithiasic phenotype in cystinuric mice", "assay": "ROC curve of urine S-Met-L-Erg concentration to differentiate the lithiasic phenotype", "set-up": "species or system mouse", "conditions": "stone former vs non-stone former Slc7a9-/- mice", "experimental": "Mice from each genotype were individually housed in metabolic cages for 4 days with the first day as an adaptation period. Mice weight, water and food intake, and feces and urine excreted were monitored daily. 24 h urine samples were collected and kept at −80° C. until further analysis with 50 μL thymol 10% in isopropanol as preservative. Blood was obtained by intracardiac puncture with EDTA coated syringes and transferred into Microvette EDTA-tubes (Sarstedt) and centrifuged at 3000 rpm for 10 min and 4° C. in a minifuge after a 10 min incubation at room temperature. Plasma was then separated into a new tube and kept on ice. Plasma absorbance at 414 nm was then determined to quantify hemolysis with a NanoDrop spectrophotometer and only those with OD<0.2 were considered for the further analysis. Plasma samples were stored at −80° C. and centrifuged erythrocytes (RBCs) were also collected and stored at −80° C.\nFor L-Erg and S-met-L-Erg analysis in urine, thawed urine samples where centrifuged at 1000×g 5 min and 4° C. to remove any debris. […] The samples where then filtered through eXtremeFV PVDF 0.2 μm filter vials (Thomson Instrument Company), and L-Erg and S-met quantified by UPLC-MS/MS. […]\nMass spectrometry was carried out under positive ion, electrospray ionization mode, using multiple reaction monitoring (MRM) for quantification of specific target ions. […]"}, "[7]": {"conditions": "end of 6-month treatment, treated vs non-treated"}, "[8]": {"conditions": "60 mg/L L-Erg in drinking water"}, "[9]": {"conditions": "60 mg/L, before vs after treatment"}}}
{"compound": "C[N+](C)(C)[C@@H](Cc1c[nH]c(=S)[nH]1)C(=O)[O-]", "note": "(stereo in doubt) [L-Erg, [1-carboxy-2-(2-sulfanylidene-1,3-dihydroimidazol-4-yl)ethyl]-trimethylazanium]", "values": [{"measurement": "time L-Erg blood and plasma concentrations remain significatively higher after the administration end", "setting": "[1]", "value": 6, "unit": "weeks"}, {"measurement": "Cys intracellular concentration in kidney, increase", "setting": "[2]", "value": 1.6, "unit": "×"}, {"measurement": "Cys/CssC ratio in kidney, increase", "setting": "[2]", "value": 6.1, "unit": "times"}, {"measurement": "GSH intracellular concentration in kidney, increase", "setting": "[2]", "value": 1.4, "unit": "×"}, {"measurement": "GSH/GSSG ratio in kidney, increase", "setting": "[2]", "value": 2.1, "unit": "times"}, {"measurement": "Met intracellular concentration in kidney, increase", "setting": "[2]", "value": 1.7, "unit": "×"}, {"measurement": "S-adenosylhomocysteine (SAH) intracellular concentration in kidney, decrease", "setting": "[2]", "value": 1.2, "unit": "×"}, {"measurement": "SAM/SAH ratio in kidney, increase", "setting": "[2]", "value": 1.8, "unit": "times"}, {"measurement": "cystine intracellular concentration in kidney, decrease", "setting": "[2]", "value": 11.1, "unit": "×"}, {"measurement": "gamma-Glutamylcysteine intracellular concentration in kidney, increase", "setting": "[2]", "value": 1.7, "unit": "×"}, {"measurement": "lithiasis onset", "setting": "[3]; 16 mg/kg·day, 6 months, independently of sex", "value": "delayed lithiasis onset"}, {"measurement": "stone growth (rate) in the L-Erg treated group", "setting": "[3]; 16 mg/kg·day, 6 months, vs untreated", "value": "almost statistically significant reduction"}, {"measurement": "stone growth (rate) in the L-Erg treated group", "setting": "[3]; 16 mg/kg·day, 6 months, vs untreated, listed as ergothioneine", "value": "lower"}, {"measurement": "effect on mouse weight", "setting": "[3]; 6-month chronic treatment", "value": "no effects"}, {"measurement": "effect on water intake", "setting": "[3]; 6-month chronic treatment", "value": "no effects"}, {"measurement": "effect on urine pH", "setting": "[3]; [7]", "value": "no differences"}, {"measurement": "effect on urine redox potential", "setting": "[3]; [7]", "value": "statistically significant more reduced urine"}, {"measurement": "side effects in cystinuric mice", "setting": "[3]; mouse, in vivo", "value": "does not generate any side effect"}, {"measurement": "reduction in the number of lithiasic (stone-forming) mice", "setting": "[3]; target dose 16 mg/kg·day in drinking water since weaning, 6 months, vs untreated", "value": 50, "unit": "%"}, {"measurement": "delay of stone formation in relation to non-treated mice", "setting": "[3]; treated mice that still formed stones", "value": 1, "unit": "month"}, {"measurement": "increase of L-Erg concentration in urine", "setting": "cystinuria mouse model; 15 mg/L L-Erg in drinking water", "value": "3.4±0.4", "unit": "fold"}, {"measurement": "urine pH change", "setting": "cystinuria mouse model; 15 mg/L L-Erg in drinking water, p=0.052", "value": "statistically non-significant increase"}, {"measurement": "water intake normalized by surface, change at the end of the treatment", "setting": "cystinuria mouse model; 15 mg/L L-Erg in drinking water, p=0.11", "value": "statistically non-significant increase"}, {"measurement": "urine pH change", "setting": "cystinuria mouse model; [8]", "value": "statistically significant increase"}, {"measurement": "increase of L-Erg concentration in urine", "setting": "cystinuria mouse model; [8]", "value": "174.6±38.4", "unit": "fold"}, {"measurement": "water intake normalized by surface, change at the end of the treatment", "setting": "cystinuria mouse model; 60 mg/L L-Erg in drinking water, p=0.08", "value": "statistically non-significant increase"}, {"measurement": "urine redox status or potential (ORP) change", "setting": "cystinuria mouse model; 15 and 60 mg/L L-Erg in drinking water", "value": "statistically non-significant decrease"}, {"measurement": "formation of L-Erg-Cys and L-Erg-L-Erg dimers", "setting": "[4]", "value": "Neither L-Erg-Cys, nor L-Erg-L-Erg dimers were detected"}, {"measurement": "effect on cystine stone growth", "setting": "[5]; 60 mg/L in drinking water, lithiasic mice, treated vs untreated, p=0.61", "value": "No effect"}, {"measurement": "effect on growth of multiple stones", "setting": "[5]; 60 mg/L in drinking water, p=0.41", "value": "No statistically significant effect"}, {"measurement": "effect on growth of single stones", "setting": "[5]; 60 mg/L in drinking water, p=0.78", "value": "No statistically significant effect"}, {"measurement": "effect on surface corrected water intake", "setting": "[5]; [9]", "value": "no differences"}, {"measurement": "effect on urine pH", "setting": "[5]; [9]", "value": "no differences"}, {"measurement": "effect on urine redox status", "setting": "[5]; [9]", "value": "no differences"}]}
{"compound": "CSc1ncc(C[C@@H](C(=O)[O-])[N+](C)(C)C)[nH]1", "note": "[S-Met-L-Erg, (2-{S})-3-(2-methylsulfanyl-1-{H}-imidazol-5-yl)-2-(trimethylazaniumyl)propanoate]", "values": [{"measurement": "area under the ROC curve, urine concentration as lithiasic biomarker", "setting": "[6]", "value": "over 0.65"}]}
